Reference: PMC6582486, “Stapled EGFR peptide reduces inflammatory breast cancer and inhibits additional HER-driven models of cancer” (Journal of Translational Medicine, 2019)
Like-named read-outs stand apart in the source and are kept apart here. Where a SMILES comes first, the peptide text is derived from it. Bridges are numbered along the chain shown (N, C = ends). Where no end group is shown, it is not given here. [ ]: non-standard residue; d: D form. R8 = C=CCCCCCC[C@@](C)(N)C(=O)O; S5 = C=CCCC[C@](C)(N)C(=O)O

Columns and labels:
[1] = test system: MDA-MB-468 breast cancer cells; assay type: cell-based, human; settings: 24 h
Source text: Fig. 1 Hydrocarbon stapling leads to increased EJ1 activity in comparison to HER-directed monoclonal therapies. a EJ1 sequence with PTD4 domain (underlined) corresponding to EGFR juxtamembrane domain sequence 643–663. Stabilized alpha helix (SAH) variations 1–5 beneath, with asterisks (*) indicating sites of staple. Control peptide (CP) with altered residues indicated by double underline. Stapled control (5) asterisks (*) indicate sites of staple. b Cartoon representation of EJ1 structure, with staple variation 5 highlighted. Positively charged residues indicated in blue, negatively charged residues in red. c Cartoon representation of CP structure, with staple variation highlighted. d Cell viability assay performed in MDA-MB-468 cells after 24 h comparing unstapled EJ1 versus staple variations SAH1, SAH4, and SAH5, with increasing concentrations. e Visualization of MDA-MB-468 cells untreated, treated with 10 µM EJ1, and 10 µM SAH5-EJ1 after 60 min. Scale bars represent 50 µm. f–h Cell viability assay performed in MDA-MB-468, MCF10A, or CHO cells over 3 days comparing treatment with Sapitinib (blue lines), SAH5-EJ1 (red lines), and SAH5-CP (grey lines). […] Data shown in d, f, g–i represent mean ± percent difference of assays performed in triplicate 1000–3000 cells were plated in 96-well plates (Falcon; Corning, NY) and allowed to adhere for 24–48 h prior to therapeutic introduction. Compounds were added and incubated on cells for 3 days in serum-containing media, followed by 2 h treatment with MTT (Sigma M5655) with the resulting formazan solubilized in DMSO. Absorbance was read at 540 nm by plate reader (uQuant, Bio-Tek Instruments). P-values were calculated from a one-way ANOVA.

[2] = cited from earlier work
Source text: Despite variations in extracellular ligand binding abilities and intracellular tyrosine kinase activity, HER1-3 share homology in their juxtamembrane domain [15]. Within the juxtamembrane domain are sequences responsible for targeting HER proteins to the nucleus, binding to calcium/calmodulin, trafficking to the basolateral domain from the trans-Golgi network, and dimerization, an event required for HER activation and downstream signaling.

MCF10A breast cells = assay: Cell viability assay (MTT), MCF10A; assay type: cell-based, human; settings: 72 h of treatment, maximum reduction
Source text: (§1) Fig. 1 Hydrocarbon stapling leads to increased EJ1 activity in comparison to HER-directed monoclonal therapies. a EJ1 sequence with PTD4 domain (underlined) corresponding to EGFR juxtamembrane domain sequence 643–663. Stabilized alpha helix (SAH) variations 1–5 beneath, with asterisks (*) indicating sites of staple. Control peptide (CP) with altered residues indicated by double underline. Stapled control (5) asterisks (*) indicate sites of staple. b Cartoon representation of EJ1 structure, with staple variation 5 highlighted. Positively charged residues indicated in blue, negatively charged residues in red. c Cartoon representation of CP structure, with staple variation highlighted. d Cell viability assay performed in MDA-MB-468 cells after 24 h comparing unstapled EJ1 versus staple variations SAH1, SAH4, and SAH5, with increasing concentrations. e Visualization of MDA-MB-468 cells untreated, treated with 10 µM EJ1, and 10 µM SAH5-EJ1 after 60 min. Scale bars represent 50 µm. f–h Cell viability assay performed in MDA-MB-468, MCF10A, or CHO cells over 3 days comparing treatment with Sapitinib (blue lines), SAH5-EJ1 (red lines), and SAH5-CP (grey lines). […] Absorbance was read at 540 nm by plate reader (uQuant, Bio-Tek Instruments). P-values were calculated from a one-way ANOVA.

CHO cells = assay: Cell viability assay (MTT), CHO; assay type: cell-based, Chinese Hamster; settings: up to 3 days
Source text: as §1

[3] = test system: SUM149 inflammatory breast cancer cells; assay type: cell-based; settings: SUM149, 10 µM
Protocol: 1000–3000 cells were plated in 96-well plates (Falcon; Corning, NY) and allowed to adhere for 24–48 h prior to therapeutic introduction. Compounds were added and incubated on cells for 3 days in serum-containing media, followed by 2 h treatment with MTT (Sigma M5655) with the resulting formazan solubilized in DMSO. Absorbance was read at 540 nm by plate reader (uQuant, Bio-Tek Instruments). P-values were calculated from a one-way ANOVA.
Fig. 4 SAH5-EJ1 effectively treats models of basal and inflammatory breast cancers while increasing survival. a Changes in tumor burden in breast cancer PDX mouse model TM01278 with various concentrations of intravenous SAH5-EJ1. Control represents water as a vehicle control. *p < 0.05 (Control vs 1 µg/g); **p < 0.01 (Control vs 1 µg/g and vs 10 µg/g). N = 6 for each condition. b Kaplan–Meier curve of breast PDX mouse model treated with control (blue) or either 1 or 10 µg/g SAH5-EJ1 (green and red, respectively) (red asterisks indicate time point at which mice could no longer receive injections due to site toxicity). Data shown represent mean. N = 6 for all groups. c Cell viability assay performed in SUM149 cells over 3 days comparing treatment with Sapitinib (blue) to SAH5-EJ1 (red) and SAH5-CP (grey). Solid lines represent 24 h; dashed lines represent 72 h. Data shown represent mean ± percent difference of assays performed in triplicate. d Kaplan–Meier curve of inflammatory breast cancer SUM149-injected mouse model treated with injected control (water) (blue) or either 0.5 or 5 µg/g SAH5-EJ1 (green and red, respectively). Data shown represent mean. N = 8 for all groups. e Changes in tumor burden in SUM149-generated tumors with various doses of SAH5-EJ1. Control represents water (blue). Arrow indicates transition from intravenous (IV) SAH5-EJ1 injections to intraperitoneal (IP) on day 66. **p < 0.01 (Control vs 0.5 µg/g and vs 5 µg/g). Data shown represent mean ± standard deviation. N = 8 for all groups. f Images of mouse tumors taken on Day 116. Arrowheads indicate tumor site. Representative images selected. […]

In the case of YARAAARQARAFMRRRHIVRKRTLRRLLQERE [EJ1], the IC50 [1] is listed as 18 µM and the “time to degradation when introduced to plasma” value [2] is listed as “less than 5 min”.
For CNC(=O)CN1CCC(Oc2cc3c(Nc4cccc(Cl)c4F)ncnc3cc2OC)CC1 [Sapitinib, reference compound], the “reduction of cell viability” value (MCF10A breast cells) was no more than 70%, the “efficacy / response in words” value (CHO cells) was “limited efficacy” and the cell viability ([3]; 24 h) was “no reduction in cell viability”. It also gave a cell viability ([3]; 3 days) of 35%.
With CC[C@H](C)[C@@H]1NC(=O)[C@H](Cc2c[nH]cn2)NC(=O)[C@H](CCCNC(=N)N)NC(=O)[C@H](CCCNC(=N)N)NC(=O)[C@H](CCCNC(=N)N)NC(=O)[C@](C)(NC(=O)[C@H](Cc2ccccc2)NC(=O)[C@H](C)NC(=O)[C@H](CCCNC(=N)N)NC(=O)[C@H](C)NC(=O)[C@H](CCC(N)=O)NC(=O)[C@H](CCCNC(=N)N)NC(=O)[C@H](C)NC(=O)[C@H](C)NC(=O)[C@H](C)NC(=O)[C@H](CCCNC(=N)N)NC(=O)[C@H](C)NC(=O)[C@@H](N)Cc2ccc(O)cc2)CCCCCCC=CCCC[C@@](C)(C(=O)N[C@@H](CCCCN)C(=O)N[C@@H](CCCNC(=N)N)C(=O)N[C@H](C(=O)N[C@@H](CC(C)C)C(=O)N[C@@H](CCCNC(=N)N)C(=O)N[C@@H](CCCNC(=N)N)C(=O)N[C@@H](CC(C)C)C(=O)N[C@@H](CC(C)C)C(=O)N[C@@H](CCC(N)=O)C(=O)N[C@@H](CCC(=O)O)C(=O)N[C@@H](CCCNC(=N)N)C(=O)N[C@@H](CCC(=O)O)C(N)=O)[C@@H](C)O)NC(=O)[C@H](C(C)C)NC1=O [SAH4-EJ1] (H-YARAAARQARAF[R8]RRRHIV[S5]KRTLRRLLQERE-NH2; staple 13-20) the IC50 [1] was 10 µM.
CC[C@H](C)[C@H](NC(=O)[C@H](Cc1c[nH]cn1)NC(=O)[C@H](CCCNC(=N)N)NC(=O)[C@H](CCCNC(=N)N)NC(=O)[C@H](CCCNC(=N)N)NC(=O)[C@H](CCSC)NC(=O)[C@H](Cc1ccccc1)NC(=O)[C@H](C)NC(=O)[C@H](CCCNC(=N)N)NC(=O)[C@H](C)NC(=O)[C@H](CCC(N)=O)NC(=O)[C@H](CCCNC(=N)N)NC(=O)[C@H](C)NC(=O)[C@H](C)NC(=O)[C@H](C)NC(=O)[C@H](CCCNC(=N)N)NC(=O)[C@H](C)NC(=O)[C@@H](N)Cc1ccc(O)cc1)C(=O)N[C@]1(C)CCCCCCC=CCCC[C@@](C)(C(=O)N[C@@H](CC(C)C)C(=O)N[C@@H](CC(C)C)C(=O)N[C@@H](CCC(N)=O)C(=O)N[C@@H](CCC(=O)O)C(=O)N[C@@H](CCCNC(=N)N)C(=O)N[C@@H](CCC(=O)O)C(N)=O)NC(=O)[C@H](CCCNC(=N)N)NC(=O)[C@H](CC(C)C)NC(=O)[C@H]([C@@H](C)O)NC(=O)[C@H](CCCNC(=N)N)NC(=O)[C@H](CCCCN)NC(=O)[C@H](CCCNC(=N)N)NC1=O [SAH1-EJ1] (H-YARAAARQARAFMRRRHI[R8]RKRTLR[S5]LLQERE-NH2; staple 19-26) gave an IC50 [1] of 10 µM.
